From publication PMC12440375 (Biochemistry, 2025) come the findings set out here.

Data set [1] addresses T1, EmrE (Escherichia coli, UniProt P23895).
T1 sequence (P23895 1-110): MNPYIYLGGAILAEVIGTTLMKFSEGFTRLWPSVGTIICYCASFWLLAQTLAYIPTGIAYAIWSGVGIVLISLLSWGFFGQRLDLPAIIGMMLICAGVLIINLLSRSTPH
Nature of the data set: fluorescence polarization. Format: binding.

Data set [2] deals with T2, EmrE (Escherichia coli, UniProt P23895, K22A).
T2 sequence (P23895 1-110 K22A): T1 sequence (P23895 1-110)
Nature of the data set: fluorescence polarization. Format: binding.

Data set [3] has as its target T3, EmrE (Escherichia coli, UniProt P23895, K22R).
T3 sequence (P23895 1-110 K22R): T1 sequence (P23895 1-110)
The experiment in a line: fluorescence polarization. The class given is binding.

Data set [4] addresses T2, EmrE. Nature of the data set: TROSY-HSQC NMR. The class given is binding.
Data set [5] deals with the molecule itself. Nature of the data set: native MS.
Data set [6] concerns the molecule itself. Nature of the data set: native MS. The source holds these as a separate data set.

Like-named read-outs stand apart in the source and are kept apart here.

On to `CC1=CC(C)=[N+]2C1=C(c1ccc3c(c1)OCCOCCOCCOCCOCCO3)c1c(C)cc(C)n1[B-]2(F)F` [benzo[18]crown-6 BODIPY, 10-(2,3,5,6,8,9,11,12,14,15-decahydrobenzo[b][1,4,7,10,13,16]Hexaoxacyclooctadecin-18-yl)-5,5-difluoro-1,3,7,9-tetramethyl-5H-4l4,5l4-dipyrrolo[1,2-c:2′,1′-f][1,3,2]diazaborinine], for which the Kd on EmrE [1] is 97.4 nM; on EmrE [2], 154 nM; on EmrE [3] it was 226 nM.

Turning to `c1ccc([P+](c2ccccc2)(c2ccccc2)c2ccccc2)cc1` [tetraphenylphosphonium bromide], the “TROSY-HSQC NMR” value at EmrE [4] is given as “a portion of the drug-free K22A-EmrE was saturated with the substrate tetraphenylphosphonium bromide (TPP+)”.

B1: Saposin A (natural protein)
chain: SLPCDICKDVVTAAGDMLKDNATEEEILVYLEKTCDWLPKPNMSASCKEIVDSYLPVILDIIKGEMSRPGEVCSALNLCESLQ
As to B1, the “stoichiometry N” value in the data set “native MS [5]” was 4; in the data set “native MS [6]”, 2.

B2: EmrE (WT-EmrE), multidrug efflux pump from Escherichia coli (natural protein)
chain: T1 sequence (P23895 1-110)
Consider B2, for which the “stoichiometry N” value in the data set “native MS [6]” came to 2.
